Experimental findings from publication PMC10531082, “Antiproliferative and Antimetastatic Properties of 16-Azidomethyl Substituted 3-O-Benzyl Estrone Analogs” (International Journal of Molecular Sciences, 2023) are described below.

Usually inhibition stands for the share of the control response that was lost under treatment. The IC50 is the point on the concentration scale where inhibition reaches its midpoint. A lower IC50 goes with higher potency. The EC50 is the concentration needed to bring the measured effect to its halfway point. A lower EC50 goes with a more potent agent.

Like-named read-outs stand apart in the source and are kept apart here.

One series can be described thus: in vitro. On the set-up: MTT assay on non-cancerous NIH/3T3 fibroblasts, absorbance at 545 nm, selectivity counter-screen. The note with it: mouse, nih/3t3 cells; read-out: IC50 NIH/3T3. How it is done:
The antiproliferative capacities of the prepared compounds were determined by employing the MTT assay against a panel of human adherent cancer cell lines isolated from breast (MCF-7 and MDA-MB-231) or cervical (HeLa and SiHa) tumors. All compounds were tested at two concentrations (10 and 30 μM). When >50% of antiproliferative capacity was obtained at 10 μM, the assays were repeated with a broader concentration range (0.1–30 μM), and IC50 values were calculated (Figure 2, Supplementary Table S1, Supplementary Figure S1). […] MTT assays were performed against the non-cancerous fibroblast cell line NIH/3T3 to obtain preliminary data on cancer selectivity of 16AABE and 16BABE. […] The ratios of IC50 values obtained against cancer cells and fibroblasts were in the range of 0.2 and 0.5, indicating substantial cancer selectivity of these two compounds (Table 1). The antiproliferative activity of the presented compounds were evaluated against a panel of human gynecological cancer cell lines. MCF-7 and MDA-MB-231 cell lines were derived from breast cancers, while HeLa and SiHa cell lines originated from cervical cancers of different pathological backgrounds. […] Absorbance of the reduced MTT solution was measured at 545 nm using a microplate reader, with untreated cells serving as the negative control. […]

The test system of the next series is NIH/3T3. Briefly: cells. Details: MTT assay, growth inhibition of cells relative to untreated control. As to conditions: Mus musculus, NIH3T3; read-out: Growth inhibition (%) at 30 uM. How it is done: (§1) Cancer cells were seeded onto a 96-well microplate for the proliferation assay at a density of 5000 cells/well. After 24 h of incubation, 200 μL of new medium containing the test compounds at 10 or 30 µM concentrations was added. Absorbance of the reduced MTT solution was measured at 545 nm using a microplate reader, with untreated cells serving as the negative control. In the case of active compounds (i.e., >50% cell growth inhibition at 10 μM), the assay was repeated with a series of dilutions, and sigmoidal dose–response curves were fitted to the obtained data. The IC50 values, representing the concentration at which cell proliferation was reduced by 50% compared with the untreated control, were calculated using GraphPad Prism 5 (GraphPad Software, San Diego, CA, USA). Each in vitro experiment was conducted on two microplates with a minimum of five parallel wells. […] Cisplatin was used as a reference agent. The antiproliferative capacities of the prepared compounds were determined by employing the MTT assay against a panel of human adherent cancer cell lines isolated from breast (MCF-7 and MDA-MB-231) or cervical (HeLa and SiHa) tumors. All compounds were tested at two concentrations (10 and 30 μM). When >50% of antiproliferative capacity was obtained at 10 μM, the assays were repeated with a broader concentration range (0.1–30 μM), and IC50 values were calculated (Figure 2, Supplementary Table S1, Supplementary Figure S1). […] MTT assays were performed against the non-cancerous fibroblast cell line NIH/3T3 to obtain preliminary data on cancer selectivity of 16AABE and 16BABE. […] The ratios of IC50 values obtained against cancer cells and fibroblasts were in the range of 0.2 and 0.5, indicating substantial cancer selectivity of these two compounds (Table 1).

In series [1] the test system is SiHa. Briefly: cells. As to conditions: Homo sapiens, SiHa; for inhibition at 10 µM: read-out: Growth inhibition (%) at 10 uM; for inhibition at 30 µM: read-out: Growth inhibition (%) at 30 uM. On the set-up: MTT assay, growth inhibition of cells relative to untreated control. How it is done: as §1
Series [2] relates to MCF-7. Briefly: cells. As to conditions: Homo sapiens, MCF7; for inhibition at 10 µM: read-out: Growth inhibition (%) at 10 uM; for inhibition at 30 µM: read-out: Growth inhibition (%) at 30 uM. On the set-up: MTT assay, growth inhibition of cells relative to untreated control. How it is done:
as §1

For series [3], the system named is MDA-MB-231. Briefly: cells. On the set-up: MTT assay, growth inhibition of cells relative to untreated control. The note with it: Homo sapiens, MDA-MB-231; for inhibition at 10 µM: read-out: Growth inhibition (%) at 10 uM; for inhibition at 30 µM: read-out: Growth inhibition (%) at 30 uM. The protocol: as §1
The test system of series [4] is HeLa. The experiment in a line: cells. As to conditions: Homo sapiens, HeLa; for inhibition at 10 µM: read-out: Growth inhibition (%) at 10 uM; for inhibition at 30 µM: read-out: Growth inhibition (%) at 30 uM. On the set-up: MTT assay, growth inhibition of cells relative to untreated control. How it is done: as §1
In series [5] the test system is SiHa. Briefly: cells. As to conditions: Homo sapiens; for inhibition at 30 µM / inhibition at 10 µM: read-out: Growth inhibition (%) SiHa. Details: MTT antiproliferative assay, absorbance at 545 nm, inhibition versus untreated control. How it is done:
(§2) The antiproliferative capacities of the prepared compounds were determined by employing the MTT assay against a panel of human adherent cancer cell lines isolated from breast (MCF-7 and MDA-MB-231) or cervical (HeLa and SiHa) tumors. All compounds were tested at two concentrations (10 and 30 μM). When >50% of antiproliferative capacity was obtained at 10 μM, the assays were repeated with a broader concentration range (0.1–30 μM), and IC50 values were calculated (Figure 2, Supplementary Table S1, Supplementary Figure S1). […] MTT assays were performed against the non-cancerous fibroblast cell line NIH/3T3 to obtain preliminary data on cancer selectivity of 16AABE and 16BABE. […] The ratios of IC50 values obtained against cancer cells and fibroblasts were in the range of 0.2 and 0.5, indicating substantial cancer selectivity of these two compounds (Table 1). Cancer cells were seeded onto a 96-well microplate for the proliferation assay at a density of 5000 cells/well. After 24 h of incubation, 200 μL of new medium containing the test compounds at 10 or 30 µM concentrations was added. Absorbance of the reduced MTT solution was measured at 545 nm using a microplate reader, with untreated cells serving as the negative control. In the case of active compounds (i.e., >50% cell growth inhibition at 10 μM), the assay was repeated with a series of dilutions, and sigmoidal dose–response curves were fitted to the obtained data. The IC50 values, representing the concentration at which cell proliferation was reduced by 50% compared with the untreated control, were calculated using GraphPad Prism 5 (GraphPad Software, San Diego, CA, USA). Each in vitro experiment was conducted on two microplates with a minimum of five parallel wells. […] Cisplatin was used as a reference agent.

The test system of series [6] is MCF-7. Briefly: cells. The note with it: Homo sapiens, MCF7; for inhibition at 10 µM / inhibition at 30 µM: read-out: Growth inhibition (%) MCF-7. Details: MTT antiproliferative assay, absorbance at 545 nm, inhibition versus untreated control. How it is done: as §2
Series [7] has as its system MDA-MB-231. The experiment in a line: cells. The note with it: Homo sapiens; for inhibition at 10 µM / inhibition at 30 µM: read-out: Growth inhibition (%) MDA-MB-231. On the set-up: MTT antiproliferative assay, absorbance at 545 nm, inhibition versus untreated control. The protocol: as §2
Series [8] deals with HeLa. The experiment in a line: cells. Details: MTT antiproliferative assay, absorbance at 545 nm, inhibition versus untreated control. As to conditions: Homo sapiens; for inhibition at 10 µM / inhibition at 30 µM: read-out: Growth inhibition (%) HeLa. The protocol:
as §2

For a further series, the target named is T1, estrogen receptor (ERα) (Homo sapiens, UniProt P03372).
T1 construct: gene ESR1
T1 sequence (P03372 whole entry): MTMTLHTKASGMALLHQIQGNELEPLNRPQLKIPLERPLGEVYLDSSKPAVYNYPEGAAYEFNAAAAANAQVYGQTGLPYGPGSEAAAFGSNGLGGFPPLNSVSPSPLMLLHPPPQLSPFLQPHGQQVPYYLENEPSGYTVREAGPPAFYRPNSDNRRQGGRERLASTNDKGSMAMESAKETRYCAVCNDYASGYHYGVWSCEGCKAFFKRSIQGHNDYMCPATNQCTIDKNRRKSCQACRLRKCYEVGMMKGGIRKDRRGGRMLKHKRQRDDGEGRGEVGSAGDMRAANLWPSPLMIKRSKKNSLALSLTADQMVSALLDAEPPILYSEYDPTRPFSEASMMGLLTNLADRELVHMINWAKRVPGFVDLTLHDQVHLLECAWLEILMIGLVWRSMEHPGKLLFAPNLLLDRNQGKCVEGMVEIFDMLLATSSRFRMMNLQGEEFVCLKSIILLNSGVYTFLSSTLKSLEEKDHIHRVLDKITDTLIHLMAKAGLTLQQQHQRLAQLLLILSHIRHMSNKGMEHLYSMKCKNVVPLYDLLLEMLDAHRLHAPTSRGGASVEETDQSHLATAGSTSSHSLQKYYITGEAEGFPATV
Briefly: estrogen-responsive luciferase reporter assay in T47D-KBluc cells (agonism). Format: cell-based.

Regarding `C[C@]12CC[C@@H]3c4ccc(OCc5ccccc5)cc4CC[C@H]3[C@@H]1C[C@@H](CN=[N+]=[N-])C2=O` [16AABE, 16α-azidomethyl-3-benzyloxyestra-1,3,5(10)-trien-17-on], the CC50 in the series “in vitro” turned out to be 13.6 µM. In addition, the inhibition at 30 µM in the series on NIH/3T3 came out at 98.29 ± 0.41%; in the series on SiHa [1] it was 91.48 ± 0.55%; in the series with MCF-7 [2], 93.85 ± 0.22%; with MDA-MB-231 [3], 95.11 ± 0.31%; with HeLa [4], 93.96 ± 0.23%. The inhibition at 10 µM was 90.1 ± 0.66% in the series on SiHa [1], 91.73 ± 0.71% in the series with MCF-7 [2], 93.53 ± 0.17% with MDA-MB-231 [3] and 93.22 ± 0.92% with HeLa [4]. The IC50 in the series on SiHa [5] was determined as 4.1 µM; in the series on MCF-7 [6] it was 3.13 µM; in the series with MDA-MB-231 [7], 4.72 µM; in the series on HeLa [8], 5.01 µM.

In the case of `C[C@]12CC[C@@H]3c4ccc(OCc5ccccc5)cc4CC[C@H]3[C@@H]1C[C@H](CN=[N+]=[N-])[C@H]2O` [compound 2, 2], the inhibition at 30 µM in the series on SiHa [5] was found to be 43.2 ± 2.58%; in the series on MCF-7 [6], 51.9 ± 1.85%; in the series with MDA-MB-231 [7] it was 64.2 ± 1.39%; in the series with HeLa [8], 55.5 ± 2.06%. Besides, the results for the inhibition at 10 µM in the series with MCF-7 [6], in the series with MDA-MB-231 [7] and in the series with HeLa [8] were 20.2 ± 2.19%, 45.1 ± 1.69% and 29.1 ± 1.06%, respectively.

On to `C[C@]12CC[C@@H]3c4ccc(OCc5ccccc5)cc4CC[C@H]3[C@@H]1C[C@@H](CN=[N+]=[N-])[C@H]2O` [compound 4, 4], for which the inhibition at 10 µM was below 20% in the series with SiHa [5], below 20% with MCF-7 [6], 25.1 ± 2.83% with MDA-MB-231 [7] and 26.6 ± 1.78% in the series on HeLa [8]. Moreover, the inhibition at 30 µM is 31.9 ± 0.69% with SiHa [5], 52.4 ± 2.5% in the series with MCF-7 [6], 57.3 ± 0.98% with MDA-MB-231 [7] and 52.89 ± 0.49% in the series on HeLa [8].

As to `C[C@]12CC[C@@H]3c4ccc(OCc5ccccc5)cc4CC[C@H]3[C@@H]1C[C@@H](CN=[N+]=[N-])[C@@H]2O` [compound 3, 3], the inhibition at 10 µM is below 20% in the series with SiHa [5], 27.3 ± 1.28% in the series with MCF-7 [6], 33.5 ± 2.92% in the series with MDA-MB-231 [7] and 25 ± 2.26% in the series on HeLa [8]. The inhibition at 30 µM with SiHa [5] was found to be 86.46 ± 0.36%; in the series with MCF-7 [6], 92.55 ± 0.18%; with MDA-MB-231 [7], 89 ± 0.9%; in the series with HeLa [8], 93.35 ± 0.32%.

As to `C[C@]12CC[C@@H]3c4ccc(OCc5ccccc5)cc4CC[C@H]3[C@@H]1C[C@H](CN=[N+]=[N-])C2=O` [16BABE, 16β-azidomethyl-3-benzyloxyestra-1,3,5(10)-trien-17-on], in the series “in vitro”, the CC50 worked out at 18.9 µM. Further, at estrogen receptor (ERα), the concentration for a half-maximal effect (EC50) was around 0.178 µM. The inhibition at 30 µM with NIH/3T3 was found to be 94.8 ± 1.63%; in the series with SiHa [1], 91.08 ± 0.55%; in the series with MCF-7 [2], 93.79 ± 0.4%; with MDA-MB-231 [3] it was 95.03 ± 0.23%; in the series with HeLa [4] it was 94.33 ± 0.32%. For the same compound, the inhibition at 10 µM worked out at 90.73 ± 0.53% in the series with SiHa [1], 92.94 ± 0.37% with MCF-7 [2], 93.65 ± 0.24% with MDA-MB-231 [3] and 93.4 ± 0.13% in the series with HeLa [4]. The IC50 in the series with SiHa [5] is 3.85 µM; in the series with MCF-7 [6] it was 3.15 µM; in the series with MDA-MB-231 [7], 8.13 µM; in the series with HeLa [8], 4.6 µM.

As to `C[C@]12CC[C@@H]3c4ccc(OCc5ccccc5)cc4CC[C@H]3[C@@H]1C[C@H](CN=[N+]=[N-])[C@@H]2O` [compound 1, 1], the inhibition at 10 µM is below 20% in the series on SiHa [5], 38.8 ± 0.81% with MCF-7 [6], 34.07 ± 0.27% with MDA-MB-231 [7] and 33.97 ± 0.33% with HeLa [8]. In addition, the inhibition at 30 µM in the series with SiHa [5] was 89.93 ± 0.2%; with MCF-7 [6] it was 92.64 ± 0.22%; in the series on MDA-MB-231 [7], 92.92 ± 0.09%; in the series on HeLa [8], 93.1 ± 0.21%.
